Data on one molecule can be found in publication PMC10488051, “Screening, Synthesis and Biochemical Characterization of SARS-CoV-2 Protease Inhibitors” (International Journal of Molecular Sciences, 2023).

This test concerns the target mutant PL^proC111S (Severe acute respiratory syndrome coronavirus 2, UniProt P0DTD1, C1674S). In kind it is binding, SARS-CoV-2.

In the case of `Nc1ccccc1SSc1ccccc1N` [Compound 32], the “Thermal effect (Tm) on mutant PL^proC111S” value is “but not the mutant PL^proC111S”.
